We go through one molecule from article PMC6272579, “A Three-Enzyme-System to Degrade Curcumin to Natural Vanillin” (Molecules, 2015).

The target in the experiment is T1, CAL (Moesziomyces antarcticus, UniProt P41365).
T1 construct: immobilised commercial lipase Novozyme_435 (known to be lipase B)
T1 sequence (P41365 26-342): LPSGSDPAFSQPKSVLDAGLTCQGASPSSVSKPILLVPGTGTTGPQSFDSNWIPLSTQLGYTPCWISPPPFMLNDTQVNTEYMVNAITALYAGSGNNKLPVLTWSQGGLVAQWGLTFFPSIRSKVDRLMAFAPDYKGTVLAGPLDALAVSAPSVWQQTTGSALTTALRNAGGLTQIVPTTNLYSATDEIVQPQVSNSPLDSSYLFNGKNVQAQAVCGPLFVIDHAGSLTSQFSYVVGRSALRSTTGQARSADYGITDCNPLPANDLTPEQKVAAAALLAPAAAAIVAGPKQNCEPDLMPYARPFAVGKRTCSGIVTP
The experiment in a line: lipase-catalysed acetylation, LC-MS. In kind it is biochemical. The conditions noted are these: immobilised enzyme; ethyl acetate/toluene 10:90, 4% acetate buffer pH 6, 40 °C; acyl donor geranyl acetate 1:50; acyl donor to curcumin.

Structures are written as SMILES.

Regarding `CC(=O)OC/C=C(\C)CCC=C(C)C` [geranyl acetate], the “lipase-catalysed acetylation, LC-MS” value is on record as “using geranyl acetate as the acyl donor”.
